From PubChem BioAssay AID1259407 (Chemical Carcinogenesis Research Information System (CCRIS), 2018)
The source made the active and inactive calls. No rule for the calls is given here.

Tested on: CCRIS mutagenicity, Ames/micronucleus/aberration tests
Assay: CCRIS mutagenicity studies
[1] = Test System: AMES SALMONELLA TYPHIMURIUM, Strain/Indicator: TA98, Metabolic Activation: NONE, Method: STANDARD PLATE
[2] = Test System: AMES SALMONELLA TYPHIMURIUM, Strain/Indicator: TA100, Metabolic Activation: NONE, Method: STANDARD PLATE
[3] = Test System: AMES SALMONELLA TYPHIMURIUM, Strain/Indicator: TA98, Metabolic Activation: NONE, Method: PREINCUBATION
[4] = Test System: AMES SALMONELLA TYPHIMURIUM, Strain/Indicator: TA100, Metabolic Activation: NONE, Method: PREINCUBATION
[5] = Test System: AMES SALMONELLA TYPHIMURIUM, Strain/Indicator: TA1535, Metabolic Activation: NONE, Method: PREINCUBATION
[6] = Test System: AMES SALMONELLA TYPHIMURIUM, Strain/Indicator: TA1537, Metabolic Activation: NONE, Method: PREINCUBATION

Measured: mutagenic call

N#Cc1cccc(/C=C/c2ccc(N)cc2)c1
active: Test System: AMES SALMONELLA TYPHIMURIUM, Strain/Indicator: TA98(1,8-DNP6), Metabolic Activation: S-9, Method: STANDARD PLATE active; positive | [1] active; positive | Test System: AMES SALMONELLA TYPHIMURIUM, Strain/Indicator: TA98, Metabolic Activation: S-9, Method: STANDARD PLATE active; positive | Test System: AMES SALMONELLA TYPHIMURIUM, Strain/Indicator: TA100, Metabolic Activation: S-9, Method: STANDARD PLATE active; positive
inactive: Test System: AMES SALMONELLA TYPHIMURIUM, Strain/Indicator: TA98(1,8-DNP6), Metabolic Activation: NONE, Method: STANDARD PLATE inactive; negative | [2] inactive; negative

O=C(O)c1ccc(O)cc1
inactive: [3] inactive; negative | [1] inactive; negative | Test System: AMES SALMONELLA TYPHIMURIUM, Strain/Indicator: TA98, Metabolic Activation: RAT LIVER S-9, PHENOBARBITAL AND BETA-NAPHTHOFLAVONE, Method: PREINCUBATION inactive; negative | [4] inactive; negative | [2] inactive; negative | Test System: AMES SALMONELLA TYPHIMURIUM, Strain/Indicator: TA100, Metabolic Activation: RAT LIVER S-9, PHENOBARBITAL AND BETA-NAPHTHOFLAVONE, Method: PREINCUBATION inactive; negative | Test System: AMES SALMONELLA TYPHIMURIUM, Strain/Indicator: TA102, Metabolic Activation: NONE, Method: PREINCUBATION inactive; negative | Test System: AMES SALMONELLA TYPHIMURIUM, Strain/Indicator: TA102, Metabolic Activation: RAT LIVER S-9, PHENOBARBITAL AND BETA-NAPHTHOFLAVONE, Method: PREINCUBATION inactive; negative | Test System: AMES SALMONELLA TYPHIMURIUM, Strain/Indicator: TA104, Metabolic Activation: NONE, Method: PREINCUBATION inactive; negative | Test System: AMES SALMONELLA TYPHIMURIUM, Strain/Indicator: TA104, Metabolic Activation: RAT LIVER S-9, PHENOBARBITAL AND BETA-NAPHTHOFLAVONE, Method: PREINCUBATION inactive; negative | [5] inactive; negative | Test System: AMES SALMONELLA TYPHIMURIUM, Strain/Indicator: TA1535, Metabolic Activation: RAT LIVER S-9, PHENOBARBITAL AND BETA-NAPHTHOFLAVONE, Method: PREINCUBATION inactive; negative | [6] inactive; negative | Test System: AMES SALMONELLA TYPHIMURIUM, Strain/Indicator: TA1537, Metabolic Activation: RAT LIVER S-9, PHENOBARBITAL AND BETA-NAPHTHOFLAVONE, Method: PREINCUBATION inactive; negative | Test System: E. COLI, Strain/Indicator: CM561 LEXA, Metabolic Activation: NONE, Method: STANDARD PLATE inactive; negative | Test System: E. COLI, Strain/Indicator: CM611 UVRA/LEXA, Metabolic Activation: NONE, Method: STANDARD PLATE inactive; negative | Test System: E. COLI, Strain/Indicator: WP2 UVRA, Metabolic Activation: NONE, Method: STANDARD PLATE inactive; negative | Test System: E.COLI, Strain/Indicator: WP2UVRA/PKM101, Metabolic Activation: NONE, Method: PREINCUBATION inactive; negative | Test System: E.COLI, Strain/Indicator: WP2UVRA/PKM101, Metabolic Activation: RAT LIVER S-9, PHENOBARBITAL AND BETA-NAPHTHOFLAVONE, Method: PREINCUBATION inactive; negative | Test System: E.COLI, Strain/Indicator: WP2UVRA, Metabolic Activation: NONE, Method: PREINCUBATION inactive; negative | Test System: E.COLI, Strain/Indicator: WP2UVRA, Metabolic Activation: RAT LIVER S-9, PHENOBARBITAL AND BETA-NAPHTHOFLAVONE, Method: PREINCUBATION inactive; negative

Nc1ccc2c3c(cccc13)-c1ccccc1-2
inactive: Test System: AMES SALMONELLA TYPHIMURIUM, Strain/Indicator: TA1535, Metabolic Activation: RAT, LIVER, S-9, AROCLOR 1254 (4%), Method: STANDARD PLATE inactive; negative
active: Test System: AMES SALMONELLA TYPHIMURIUM, Strain/Indicator: TA98, Metabolic Activation: RAT, LIVER, S-9, AROCLOR 1254 (2 OR 4%), Method: STANDARD PLATE active; positive | Test System: AMES SALMONELLA TYPHIMURIUM, Strain/Indicator: TA100, Metabolic Activation: RAT, LIVER, S-9, AROCLOR 1254 (4%), Method: STANDARD PLATE active; positive | Test System: AMES SALMONELLA TYPHIMURIUM, Strain/Indicator: TA1537, Metabolic Activation: RAT, LIVER, S-9, AROCLOR 1254 (4%), Method: STANDARD PLATE active; positive

CCCCC1CO1 (stereo not given)
inactive: [2] inactive; negative | Test System: AMES SALMONELLA TYPHIMURIUM, Strain/Indicator: TA1535, Metabolic Activation: NONE, Method: STANDARD PLATE inactive; negative

CCCC(=O)O[C@H]1[C@H](C)O[C@@H](O[C@H]2[C@H](N(C)C)[C@@H](O)[C@H](O[C@H]3[C@@H](CC=O)C[C@@H](C)[C@@H](O)/C=C/C=C/C[C@@H](C)OC(=O)C[C@@H](O)[C@@H]3OC)O[C@@H]2C)C[C@@]1(C)OC(=O)CC
inactive: [3] inactive; negative | Test System: AMES SALMONELLA TYPHIMURIUM, Strain/Indicator: TA98, Metabolic Activation: RAT, LIVER, S-9, AROCLOR 1254, Method: PREINCUBATION inactive; negative | [4] inactive; negative | Test System: AMES SALMONELLA TYPHIMURIUM, Strain/Indicator: TA100, Metabolic Activation: RAT, LIVER, S-9, AROCLOR 1254, Method: PREINCUBATION inactive; negative | [5] inactive; negative | Test System: AMES SALMONELLA TYPHIMURIUM, Strain/Indicator: TA1535, Metabolic Activation: RAT, LIVER, S-9, AROCLOR 1254, Method: PREINCUBATION inactive; negative | [6] inactive; negative | Test System: AMES SALMONELLA TYPHIMURIUM, Strain/Indicator: TA1537, Metabolic Activation: RAT, LIVER, S-9, AROCLOR 1254, Method: PREINCUBATION inactive; negative | Test System: AMES SALMONELLA TYPHIMURIUM, Strain/Indicator: TA1538, Metabolic Activation: NONE, Method: PREINCUBATION inactive; negative | Test System: AMES SALMONELLA TYPHIMURIUM, Strain/Indicator: TA1538, Metabolic Activation: RAT, LIVER, S-9, AROCLOR 1254, Method: PREINCUBATION inactive; negative | Test System: E. COLI, Strain/Indicator: WP2 UVRA, Metabolic Activation: NONE, Method: PREINCUBATION inactive; negative | Test System: E. COLI, Strain/Indicator: WP2 UVRA, Metabolic Activation: RAT, LIVER, S-9, AROCLOR 1254, Method: PREINCUBATION inactive; negative
